In a melting point compilation (Tetko et al.; mined from patent text by program, amines drawn as free bases though some values may be those of a salt):

With `COc1cc2cnnc(N3CCC(CCN(C)C(=O)N(C)C)CC3)c2cc1OC` the melting point was 140 to 141 °C.
`O=C(O)c1c[nH]cc2c(=O)n(-c3ccccc3)nc1-2` gave a melting point of 287 to 302 °C.
In the case of `Cc1scc2c1N(C(=O)NCCN1CCC(CCCN(C)C)CC1)c1ccccc1NC2=O`, the melting point is reported as > 300 °C.
Compound `Fc1cc(Cl)ccc1-n1nc2c(c1Br)CCC2` has a melting point of 106 to 110 °C.
For `CCSC(C)C(=O)N(CC)c1cn(-c2cccnc2)nc1Cl` (configuration not stated), the melting point was 65 to 66 °C.
`O=C(NC1CCSC2COCC(C(=O)O)N2C1=O)C(S)Cc1ccccc1` (configuration not stated) showed a melting point of 224 to 226 °C.
Work on `Nc1ccc2[nH]c(CO)cc2c1` yielded a melting point of 159 to 160 °C.
For `COc1ccc(-c2ccncc2)cc1-c1ccc(F)c(Cl)c1`, the melting point was 115 °C.
Work on `CN(C)CCOc1cccc(C=CC(=O)N2CCc3c([nH]c4ccccc34)C2c2ccc3c(c2)OCO3)c1` (configuration not stated) yielded a melting point of 76 to 78 °C.
In the case of `Cc1oc(C)c(C(=O)OC2CC(C)(C)NC(C)(C)C2)c1C`, the melting point is reported as 54 to 58 °C.
With `CCC(=NNc1ccccc1)c1cc(Cl)ccc1NS(=O)(=O)C(F)(F)F` the melting point was 128 to 129 °C.
`CC(C)OC(=O)c1ncn2c1CN(C)C(=O)c1ccccc1-2` showed a melting point of 190 to 192 °C.
`O=C(Nc1nc(OCc2ccc(F)cc2)ncc1F)Oc1ccccc1` showed a melting point of 129 to 131 °C.
Work on `C#CCn1c(=O)c2ccccc2c(=O)c2ccccc21` yielded a melting point of 117 to 118 °C.
Compound `Cc1cccc(NS(=O)(=O)c2cc(S(=O)(=O)Nc3cccc(C)c3)c3cc(O)ccc3c2)c1` has a melting point of 115 to 117 °C.
Compound `COc1ccc(-c2cccc([N+](=O)[O-])c2C)cn1` has a melting point of 81 to 83 °C.
`CC(C)c1nc(-c2ccccc2)c(F)c(-c2ccc(F)cc2)c1C=O` gave a melting point of 136 to 137 °C.
With `Nc1nc2[nH]c(CCCCCc3ccc(C(=O)N[C@@H](CCC(=O)O)C(=O)O)s3)cc2c(=O)[nH]1` the melting point was 181 to 182 °C.
For `CCC(CC)Oc1cc(C)nc2c1COCN2c1c(C)cc(Cl)cc1C`, the melting point was 190 to 192 °C.
With `CC(C)(C)OC(=O)N1C[C@H](O)C[C@H]1C(=O)OC(c1ccccc1)c1ccccc1` the melting point was 93 to 95 °C.
Work on `N#Cc1c(N2CCN(C(=O)c3cccs3)CC2)c2sccc2n(Cc2ccc(F)cc2)c1=O` yielded a melting point of 286 °C.
`COc1ccccc1-c1nc(N)c(C#N)nc1-c1ccc(=O)n(C(C)C)c1` showed a melting point of 223 °C.
Compound `Fc1ccc(-c2n[nH]cc2-c2ccnc(Nc3ccccc3F)n2)cc1` has a melting point of 239 to 240 °C.
`CCOC(=O)C(=NOCCCl)c1csc(N)n1` gave a melting point of 126 to 128 °C.
In the case of `CCCC(=O)c1cnc2c(OCCCN(C)Cc3ccccc3)cccc2c1Nc1ccccc1C`, the melting point is reported as 100 to 102 °C.
`CCOC(=O)CNC(=O)N(N(CCCl)S(C)(=O)=O)S(C)(=O)=O` gave a melting point of 121 to 122 °C.
With `CC(=O)OCCC1CCc2cccc3c(C4=C(c5cn(C)c6ccccc56)C(=O)OC4=O)cn1c23` (configuration not stated) the melting point was 143 to 146 °C.
For `O=C(COc1cc(-c2ccc([N+](=O)[O-])cc2)nc2cccc(C(F)(F)F)c12)N1CCOCC1`, the melting point was 222 °C.
In the case of `CCOC(=O)c1cc2ccc(C(C)C)nc2s1`, the melting point is reported as 73 to 74 °C.
With `O=CNc1ccc2[nH]c3cc(-c4ccccc4Cl)c4c(c3c2c1)C(=O)NC4=O` the melting point was 293 to 297 °C.
For `CCCCc1ncc(C=C(Cc2cccs2)C(=O)O)n1Cc1cccc(C(=O)O)c1`, the melting point was 243 to 244 °C.
For `Cc1ccc2cc(NC(=O)c3cccc(CSc4cnccn4)c3)ccc2n1`, the melting point was 133 to 135 °C.
`CNC(=O)[C@H](Cc1ccccc1)NC(=O)[C@H](CC(C)C)N[C@H](CCN(C(=O)OCc1ccccc1)C(=O)OCc1ccccc1)C(=O)OC(C)(C)C` showed a melting point of 95 to 99 °C.
Compound `CCOC(=O)c1c(Cn2cncn2)nc2ccc(Cl)cc2c1-c1ccccc1` has a melting point of 114 to 116 °C.
`Fc1ccc(Oc2ccc(-c3ccn(-c4ncccn4)n3)cc2)cc1` showed a melting point of 123 to 125 °C.
`c1cc(Nc2ccc3[nH]ncc3c2)ccn1` showed a melting point of 189 to 190 °C.
For `C(=C\c1nc2ccccc2n1-c1ccccn1)/c1ccsc1`, the melting point was 136 °C.
In the case of `CC12CCC3C(CCC4CC(O)CCC43C)C1CCC2=S` (configuration not stated), the melting point is reported as 172 to 173 °C.
`O=CN(O)CCCC(O)CS(=O)(=O)c1ccccc1Oc1ccc(OC(F)(F)F)cc1` (configuration not stated) gave a melting point of 92 to 93.9 °C.
In the case of `CC(O)CNCc1nc2cc(-c3ccccc3)nnc2c2ccccc12` (configuration not stated), the melting point is reported as 161 to 162 °C.
`CC1(C)C2CC[C@]1(C)C(=O)C(C(=O)Nc1cccc([N+](=O)[O-])c1)C2=O` (some centres not stated) gave a melting point of 100 to 102 °C.
`O=C(O)C(Cc1ccc(O)cc1)NC(=O)C(CS)C(F)(F)F` (configuration not stated) showed a melting point of 184 to 187 °C.
Compound `COc1ccc2c(C(=O)c3ccc(OC4CCCCC4n4ccnc4)cc3)c(-c3ccc(OCCN4CCCC4)cc3)sc2c1` (configuration not stated) has a melting point of 68 to 78 °C.
Work on `COc1ccc(C(=O)c2cccc(OCc3nc(-c4ccccc4)oc3C)c2)c(O)c1` yielded a melting point of 117 to 118 °C.
In the case of `CC1CC(=O)NN=C1c1ccc2c(c1)N(C(C)C)C(=O)C(C)O2` (configuration not stated), the melting point is reported as 204 to 205 °C.
Work on `CC=CC1Nc2ccccc2-c2c([N+](=O)[O-])cnn21` (configuration not stated) yielded a melting point of 115 to 117 °C.
Work on `CC(C)(C)OC(=O)Nc1cc(CC#N)c(C#Cc2ccccc2)cc1NC(=O)CC(=O)c1cccc(C#N)c1` yielded a melting point of 98 °C.
With `CCOC(=O)c1c(C(F)(F)F)nc(C(F)(F)F)c(C(=O)OCC)c1OC` the melting point was 46.5 to 47.5 °C.
For `CCOCOC(=O)c1c(I)cc(I)c(NC(C)=O)c1I`, the melting point was 174 to 178 °C.
Compound `COc1ccnc(CSc2nc3cc4c(cc3[nH]2)OCO4)c1OC` has a melting point of 155 to 157 °C.
With `CCOC(=O)NC(=O)C(=NNc1cc(Cl)c(C(C)(C)C#N)c(Cl)c1)C(=O)NC(=O)OCC` the melting point was 212 °C.
`NN1CCN(CC(O)c2c[nH]c3ccccc23)CC1` (configuration not stated) gave a melting point of 174 to 177 °C.
With `CCCCCCCCS(=O)(=O)C(Cl)S(N)(=O)=O` (configuration not stated) the melting point was 73 to 74 °C.
Compound `OC(Cn1cncn1)(c1ccc(Cl)cc1)C1(n2cncn2)CC1` (configuration not stated) has a melting point of 208 °C.
Work on `O=C(O)CCCc1cc2nc(C(F)(F)F)ccc2n1S(=O)(=O)c1ccccc1` yielded a melting point of 168 °C.
For `CC(Cl)(Cl)C(NC(=O)c1ccc(Cl)cc1)Nc1c(Nc2cccnc2)c(=O)c1=O` (configuration not stated), the melting point was 201 to 202 °C.
Work on `CCCCc1nc2c(N)nc(C)c(C)c2n1CC(C)(C)NS(C)(=O)=O` yielded a melting point of 90 to 92 °C.
In the case of `O=C(CCl)NCCCCOc1cc(CN2CCCCC2)ccn1`, the melting point is reported as 59 to 63 °C.
Compound `O=[N+]([O-])c1cc2c(NCc3ccc4c(c3)OCO4)nc(-n3ccnc3)nc2s1` has a melting point of 245 °C.
`COC(=O)Cc1ccccc1OCc1ccc(OCCc2nc(-c3ccccc3)oc2C)nc1` gave a melting point of 78 to 79 °C.
Compound `C[C@H]1Cn2c(=O)[nH]c3cccc(c32)CN1` has a melting point of 190 °C.
Compound `Cc1ccc2c(n1)Nc1cc(C)c(C)cc1N(C)C2=O` has a melting point of 217 to 219 °C.
`O=C(CCc1cccc(Br)c1)c1cnc2sc3c(n12)CCCCC3` gave a melting point of 77 to 79 °C.
With `Cc1cc(=O)c(-c2ccc(Cl)c(Cl)c2)c(-c2ccccc2)o1` the melting point was 104 °C.
For `Cc1cc2cc(C3CCNCC3)oc2cc1C`, the melting point was 77 to 78 °C.
With `Nc1ccccc1Nc1ccc(C(=NO)c2ccccc2)cc1` the melting point was 89 to 91 °C.
`C=CCc1ccc2oc(C=CC(=O)OCC)c(C)c2c1O` gave a melting point of 125 to 127 °C.
With `CCCCc1ncc(C(=O)OC)c(=O)n1Cc1ccc(-c2ccccc2C(=O)O)cc1` the melting point was 166 to 168 °C.
With `ON=c1cc(-c2cc3cccn3cn2)oc2ccc(OCCc3ccc(Cl)cc3)cc12` the melting point was 247 to 249 °C.
Work on `O=C1Cc2ccc(Cl)cc2C(c2ccccc2)C1` (configuration not stated) yielded a melting point of 61 to 62 °C.
Work on `CNC(=NCCCc1nc2cc(C3=NNC(=O)CC3C)ccc2[nH]1)NS(=O)(=O)c1ccccc1` (configuration not stated) yielded a melting point of 258 to 260 °C.
With `O=c1ccc(S(=O)(=O)c2cc3cc(Cl)cc(Cl)c3o2)n[nH]1` the melting point was 240 to 245 °C.
For `CCCCSc1c[nH]nc1C1CN2CCC1CC2` (configuration not stated), the melting point was 162 to 164 °C.
For `COc1ccc(C(=O)CCC(=O)O)cc1N`, the melting point was 136 to 137 °C.
`O=C1NC(=O)C(=Cc2ccc(OCCCN3Cc4ccccc4C3=O)cc2)S1` gave a melting point of 260 to 263 °C.
For `O=C(Nc1cc(-c2ccc(Cl)cc2)no1)c1c(Cl)cccc1Cl`, the melting point was 208 to 209 °C.
Work on `O=C(O)c1cn(C2CC2)c2nc(O)c(F)cc2c1=O` yielded a melting point of 325 to 327 °C.
Work on `CC(C(N)=O)c1ccc2c(c1)CCc1ccccc1O2` (configuration not stated) yielded a melting point of 122 to 123 °C.
Work on `COc1ccc(C(=O)c2cc3cc(Br)ccc3o2)cc1` yielded a melting point of 143 to 146 °C.
Compound `O=C(O)C(Cc1ccccc1)Nc1ncnc(-c2ccc(OCc3ccccc3)cc2)c1CO` (configuration not stated) has a melting point of 114 to 117 °C.
With `CCCC(C(N)=O)C(=O)O` (configuration not stated) the melting point was 137 °C.
In the case of `Cc1oc(-c2ccccc2)nc1CC=Cc1ccc(CC2SC(=O)NC2=O)cc1` (configuration not stated), the melting point is reported as 55 to 57 °C.
Compound `CC(O)=C(C(=O)OCC(Cl)(Cl)Cl)N1C(=O)C(NC(=O)COc2ccccc2)C1SSc1nc2ccccc2s1` (configuration not stated) has a melting point of 129 to 130 °C.
Work on `CC(C)S(=O)(=O)c1ccc2c(c1)nc(CC1(C)CCCC1)n2CC1CC1` yielded a melting point of 122 °C.
In the case of `COc1ccc(CN2C(=O)C(C)(c3ccccc3Cl)c3cc(OC)ccc32)c(OC)c1` (configuration not stated), the melting point is reported as 133 °C.
For `CC(C)(C)c1cccc(S(=O)(=O)n2c(CCCCC(=O)O)cc3cc(C(F)(F)F)ccc32)c1`, the melting point was 135 °C.
`CC(C)(C)OC(=O)N1CCC(NCc2cccc(NC(=O)c3ccc(F)cc3Cl)n2)CC1` showed a melting point of 79.1 °C.
With `COc1ccc(C=CC(=O)N2CCN(c3nc(N)c4cc(OC)c(OC)cc4n3)CC2)cc1` the melting point was 265 to 267 °C.
`O=C(Nc1ccc(Cl)cn1)c1cc(Cl)ccc1NCC1CCN(C2CCCCCC2)CC1` gave a melting point of 170 to 172 °C.
Work on `COC(=O)c1oc2ccc(OC)cc2c1OC(C)C` yielded a melting point of 55 to 63 °C.
Work on `c1ccc(-c2cnc(N3CCc4c([nH]c5ccccc45)C3C3Cc4ccccc4O3)nc2)nc1` (configuration not stated) yielded a melting point of 170 to 171 °C.
Work on `CN(C)Cc1cccc(OCCCNc2nc(N)n[nH]2)c1` yielded a melting point of 92 to 93 °C.
With `CC(=O)NCC1CN(c2ccc(N3CCN(C(=O)COC(=O)CO)CC3)c(F)c2)C(=O)O1` (configuration not stated) the melting point was 105 to 107 °C.
Work on `CC(C)(C)OC(=O)N[C@@H](Cc1ccc(NC(=O)OCC2c3ccccc3-c3ccccc32)cc1)C(=O)OCc1ccccc1` yielded a melting point of 186 to 187 °C.
For `CCOC(=O)c1ccc(CC#N)cc1Cl`, the melting point was 60 °C.
`NC(=O)c1ccc2c(c1)CCCN2CCN1CC=C(c2c[nH]c3cc(F)ccc23)CC1` gave a melting point of 130 to 133 °C.
Compound `COc1cc2c(cc1OC)C(C=Cc1ccc(Br)cc1)=NN=C(C)C2` has a melting point of 156 to 158 °C.
